Structures can show the parent of a compound that is named as a salt.

This test concerns the target T1, recombinant human LTA4 hydrolase (rhLTA4H) (Homo sapiens, UniProt P09960).
T1 construct: made in house; host or cells: Spodoptera frugiperda (Sf-9) cells, baculovirus (pFastBac1)
T1 sequence (P09960 1-611): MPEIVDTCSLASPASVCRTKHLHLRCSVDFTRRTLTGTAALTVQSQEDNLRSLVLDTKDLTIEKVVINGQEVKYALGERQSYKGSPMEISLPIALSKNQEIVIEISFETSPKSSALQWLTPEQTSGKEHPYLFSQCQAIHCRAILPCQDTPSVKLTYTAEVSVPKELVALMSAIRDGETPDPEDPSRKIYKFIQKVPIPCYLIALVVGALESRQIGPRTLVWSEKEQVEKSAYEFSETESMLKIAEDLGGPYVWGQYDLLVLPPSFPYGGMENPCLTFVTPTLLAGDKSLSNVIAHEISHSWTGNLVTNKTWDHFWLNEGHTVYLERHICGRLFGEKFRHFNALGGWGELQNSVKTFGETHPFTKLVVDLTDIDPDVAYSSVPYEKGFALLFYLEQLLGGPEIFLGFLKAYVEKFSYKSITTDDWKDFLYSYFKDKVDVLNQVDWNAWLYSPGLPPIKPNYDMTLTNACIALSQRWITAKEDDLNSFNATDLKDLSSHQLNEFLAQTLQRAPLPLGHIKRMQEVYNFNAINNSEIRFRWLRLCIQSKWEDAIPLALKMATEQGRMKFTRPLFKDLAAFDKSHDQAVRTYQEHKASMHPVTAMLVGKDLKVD
As to the kind of experiment: Recombinant Human LTA4 Hydrolase Assay for LTA4 Hydrolase Inhibitor Activity. It counts as biochemical. To be noted: average of results obtained; LTB4 quantified by enzyme-linked immunoassay. The method, boiled down:
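Baculovirus/Sf-9-expressed human LTA4 hydrolase (36 ng) preincubated with compound 10 min at rt in 0.1 M potassium phosphate pH 7.4, 5 mg/mL fatty-acid-free BSA. Reaction started with 9 ng LTA4 free acid, run 10 min at rt; LTB4 measured by enzyme immunoassay, IC50 from 4-parameter fit.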
For the molecule `CS(=O)(=O)N[C@H]1C[C@H]2CC[C@@H](C1)N2Cc1ccc(Oc2nc3ccccc3s2)cc1` [Example 58, meso-endo-N-{8-[4-(Benzothiazol-2-yloxy)-benzyl]-8-aza-bicyclo[3.2.1]oct-3-yl}-methanesulfonamide], the Ki was found to be 0.2 nM. As to `CC(=O)N1[C@@H]2CC[C@H]1C[C@H](NCc1ccc(Oc3nc4cccc(Cl)c4s3)cc1)C2` [Example 166, meso-exo-1-{3-[4-(7-Chloro-benzothiazol-2-yloxy)-benzylamino]-8-aza-bicyclo[3.2.1]oct-8-yl}-ethanone], the inhibitory constant (Ki) stood at 1900 nM. Next, `Cc1ccc2sc(Oc3ccc(OCCN4C[C@@H]5C[C@H]4CN5S(C)(=O)=O)cc3)nc2c1` [Example 255, (S,S)-2-{4-[2-(5-Methanesulfonyl-2,5-diaza-bicyclo[2.2.1]hept-2-yl)-ethoxy]-phenoxy}-5-methyl-benzothiazole]: 277 nM; `CC(=O)N1[C@@H]2CC[C@H]1C[C@@H](NCc1ccc(Oc3nc4ccc(F)cc4s3)cc1)C2` [Example 175, meso-endo-1-{3-[4-(6-Fluoro-benzothiazol-2-yloxy)-benzylamino]-8-aza-bicyclo[3.2.1]oct-8-yl}-ethanone]: 53 nM. Regarding `O=C(CO)N1C[C@H]2C[C@@H]1CN2Cc1ccc(Oc2nc3ccccc3s2)cc1` [Example 44, (R,R)-1-{5-[4-(Benzothiazol-2-yloxy)-benzyl]-2,5-diaza-bicyclo[2.2.1]hept-2-yl}-2-hydroxy-ethanone], the Ki worked out at 38 nM. For `O=C(N1C[C@@H]2C[C@H]1CN2Cc1ccc(Oc2nc3ccccc3s2)cc1)C1(O)CC1` [Example 11, (S,S)-{5-[4-(Benzothiazol-2-yloxy)-benzyl]-2,5-diaza-bicyclo[2.2.1]hept-2-yl}-(1-hydroxy-cyclopropyl)-methanone], the inhibition constant (Ki) worked out at 13 nM.

`CC(=O)N[C@H]1C[C@H]2CC[C@@H](C1)N2Cc1ccc(Cc2nc3ccccc3s2)cc1` [Example 5, meso-endo-N-[8-(4-Benzothiazol-2-ylmethyl-benzyl)-8-aza-bicyclo[3.2.1]oct-3-yl]-acetamide]: the Ki was determined as 35 nM. `CC(=O)N1[C@@H]2CC[C@H]1C[C@@H](NCCc1ccc(Oc3nc4cc(F)ccc4s3)cc1)C2` [Example 197, meso-endo-1-(3-{2-[4-(5-Fluoro-benzothiazol-2-yloxy)-phenyl]-ethylamino}-8-aza-bicyclo[3.2.1]oct-8-yl)-ethanone]: the inhibitory constant (Ki) came to 85 nM. `CS(=O)(=O)N1C[C@H]2C[C@@H]1CN2Cc1ccc(Oc2nc3cccc(F)c3s2)cc1` [Example 189, (R,R)-7-Fluoro-2-[4-(5-methanesulfonyl-2,5-diaza-bicyclo[2.2.1]hept-2-ylmethyl)-phenoxy]-benzothiazole]: the Ki turned out to be 375 nM. As to `CS(=O)(=O)N1CC2CCC(C1)N2Cc1ccc(Oc2nc3cccc(Cl)c3s2)cc1` [Example 174, meso-7-Chloro-2-[4-(3-methanesulfonyl-3,8-diaza-bicyclo[3.2.1]oct-8-ylmethyl)-phenoxy]-benzothiazole], the Ki is 196 nM.

As to `CC(=O)N1CCC2CN(Cc3ccc(Oc4nc5ccccc5s4)cc3)CC21` (stereo not drawn) [Example 87, 1-{5-[4-(Benzothiazol-2-yloxy)-benzyl]-hexahydro-pyrrolo[3,4-b]pyrrol-1-yl}-ethanone], the Ki is 36 nM. For `CC(=O)N1CC2CCN(Cc3ccc(Oc4nc5ccccc5s4)cc3)CC2C1` (stereo not drawn) [Example 90, 1-{5-[4-(Benzothiazol-2-yloxy)-benzyl]-octahydro-pyrrolo[3,4-c]pyridin-2-yl}-ethanone], the Ki is 21 nM. Consider `CC(=O)N1C[C@@H]2C[C@H]1CN2Cc1ccc(Oc2nc3ccccc3s2)cc1` [Example 1, (S,S)-1-{5-[4-(Benzothiazol-2-yloxy)-benzyl]-2,5-diaza-bicyclo[2.2.1]hept-2-yl}-ethanone], for which the inhibitory constant (Ki) came to 6 nM.

For the molecule `COCC(=O)N1C[C@@H]2C[C@H]1CN2Cc1ccc(Oc2nc3ccccc3s2)cc1` [Example 41, (S,S)-1-{5-[4-(Benzothiazol-2-yloxy)-benzyl]-2,5-diaza-bicyclo[2.2.1]hept-2-yl}-2-methoxy-ethanone], the Ki stood at 15 nM. Next, `CC(=O)N1CC2CCC(C1)N2Cc1ccc(Oc2nc3ccccc3s2)cc1F` [Example 77, meso-1-{8-[4-(Benzothiazol-2-yloxy)-2-fluoro-benzyl]-3,8-diaza-bicyclo[3.2.1]oct-3-yl}-ethanone]: 12 nM. Under `CS(=O)(=O)N[C@@H]1C[C@H]2CC[C@@H](C1)N2Cc1ccc(Oc2nc3c(F)cccc3s2)cc1` [Example 188, meso-exo-N-{8-[4-(4-Fluoro-benzothiazol-2-yloxy)-benzyl]-8-aza-bicyclo[3.2.1]oct-3-yl}-methanesulfonamide] stands 4 nM. Under `Cn1ccc(S(=O)(=O)N2CC3CN(Cc4ccc(Oc5nc6ccccc6s5)cc4)CC3C2)c1` (stereo not drawn) [Example 123, 2-{4-[5-(1-Methyl-1H-pyrrole-3-sulfonyl)-hexahydro-pyrrolo[3,4-c]pyrrol-2-ylmethyl]-phenoxy}-benzothiazole] stands 97 nM; under `NC(=O)N1C[C@@H]2C[C@H]1CN2CCc1cccc(Oc2nc3ccccc3s2)c1` [Example 39, (S,S)-5{2-[3-(Benzothiazol-2-yloxy)-phenyl]-ethyl}2,5-diaza-bicyclo[2.2.1]heptane-2-carboxylic acid amide], 100 nM; under `CC(=O)N1C[C@H]2C[C@@H]1CN2Cc1ccc(Oc2nc3cc(F)ccc3s2)cc1` [Example 183, (R,R)-1-{5-[4-(5-Fluoro-benzothiazol-2-yloxy)-benzyl]-2,5-diaza-bicyclo[2.2.1]hept-2-yl}-ethanone], 383 nM. Regarding `O=C(CO)N1C[C@@H]2C[C@H]1CN2Cc1ccc(Oc2nc3ccccc3s2)cc1` [Example 10, (S,S)-1-{5-[4-(Benzothiazol-2-yloxy)-benzyl]-2,5-diaza-bicyclo[2.2.1]hept-2-yl}-2-hydroxy-ethanone], the inhibition constant (Ki) stood at 10 nM. Take `O=C(C1CC1)N1CC2CN(Cc3ccc(Oc4nc5ccccc5s4)cc3)CC2C1` (stereo not drawn) [Example 111, {5-[4-(Benzothiazol-2-yloxy)-benzyl]-hexahydro-pyrrolo[3,4-c]pyrrol-2-yl}-cyclopropyl-methanone]: the inhibition constant (Ki) stood at 10 nM.

Turning to `COCC(=O)N1C[C@@H]2C[C@H]1CN2CCc1ccc(Oc2nc3ccccc3s2)cc1` [Example 42], the Ki was determined as 34 nM. Under `c1ccc2sc(Oc3ccc(CN4CC5CNCC5C4)cc3)nc2c1` (stereo not drawn) [Example 83, 2-[4-(Hexahydro-pyrrolo[3,4-c]pyrrol-2-ylmethyl)-phenoxy]-benzothiazole hydrochloride] stands 55 nM; under `O=C(O)CN1CC2CN(Cc3ccc(Oc4nc5ccccc5s4)cc3)CC2C1` (stereo not drawn) [Example 158, {5-[4-(Benzothiazol-2-yloxy)-benzyl]-hexahydro-pyrrolo[3,4-c]pyrrol-2-yl}-acetic acid], 48 nM; under `NC(=O)N1[C@@H]2CC[C@H]1C[C@@H](NCc1ccc(Oc3nc4c(F)cccc4s3)cc1)C2` [Example 198, meso-endo-3-[4-(4-Fluoro-benzothiazol-2-yloxy)-benzylamino]-8-aza-bicyclo[3.2.1]octane-8-carboxylic acid amide], 9 nM.

`CC(=O)N1C[C@@H]2C[C@H]1CN2CCc1ccc(Oc2nc3c(Cl)cccc3s2)cc1` [Example 253, (S,S)-1-(5-{2-[4-(4-Chloro-benzothiazol-2-yloxy)-phenyl]-ethyl}-2,5-diaza-bicyclo[2.2.1]hept-2-yl)-ethanone]: the inhibition constant Ki turned out to be 2600 nM. As for `CC(C)(C)OC(=O)NC1(C(=O)N2C[C@@H]3C[C@H]2CN3CCOc2ccc(Oc3nc4ccccc4s3)cc2)CC1` [Example 66, (S,S)-[1-(5-{2-[4-(Benzothiazol-2-yloxy)-phenoxy]-ethyl}-2,5-diaza-bicyclo[2.2.1]heptane-2-carbonyl)-cyclopropyl]-carbamic acid tert-butyl ester], the inhibition constant Ki came to 191 nM. Next, `O=C(C1CNC1)N1CC2CN(Cc3ccc(Oc4nc5ccccc5s4)cc3)CC2C1` (stereo not drawn) [Example 99, Azetidin-3-yl-{5-[4-(benzothiazol-2-yloxy)-benzyl]-hexahydro-pyrrolo[3,4-c]pyrrol-2-yl}-methanone]: 221 nM; `Cc1noc(C)c1NC(=O)N1CC2CN(Cc3ccc(Oc4nc5ccccc5s4)cc3)CC2C1` (stereo not drawn) [Example 133, 5-[4-(Benzothiazol-2-yloxy)-benzyl]-hexahydro-pyrrolo[3,4-c]pyrrole-2-carboxylic acid (3,5-dimethyl-isoxazol-4-yl)-amide]: 20 nM. Regarding `CC(C)(C)OC(=O)NCC(=O)N1C[C@@H]2C[C@H]1CN2CCOc1ccc(Oc2nc3ccccc3s2)cc1` [Example 30, (S,S)-[2-(5-{2-[4-(Benzothiazol-2-yloxy)-phenoxy]-ethyl}-2,5-diaza-bicyclo[2.2.1]hept-2-yl)-2-oxo-ethyl]-carbamic acid tert-butyl ester], the Ki amounted to 16 nM.

The values are drawn from patent publication US8344008B2 (Janssen Pharmaceutica NV, priority 2007, dated 2013).
